The values below come from publication PMC3462190, “A Peptidic Unconjugated GRP78/BiP Ligand Modulates the Unfolded Protein Response and Induces Prostate Cancer Cell Death” (PLoS ONE, 2012).

Where no end group is shown, it is not given here.

The subject of series [1] is GRP78/BiP. As to the kind of experiment: GST pull-down with GRP78/BiP. In kind it is binding. Particulars: for interaction with GRP78/BiP: GST-fused protein/peptide, 22Rv.1 cell lysate, Western blot. As for the experimental part:
Expression of GST fusion proteins for GST-pull-down experiments were performed essentially as described previously.
Figure 1 Bag-1 proteins interact with the molecular chaperone GRP78/BiP. A. The Bag-1 family of proteins binds GRP78/BiP. GST pull-down assay was performed incubating 5 µg each of GST-fused Bag-1 proteins with 400 µg of 22Rv.1 cell lysate. Western blotting with a specific antibodiy against GRP78/BiP was used to detect the binding and an anti-GST antibody was used to determine the amount of bacterially purified protein employed in the assay. B. Bag-1 and GRP78 interact in vivo. GRP78 was immunoprecipitated with an anti-GRP78/BiP antibody or IgG as control in 22Rv.1 cells. Western blotting with an anti-Bag-1 and anti-GRP78 antibody was performed to determine GRP78-Bag-1 interaction. C. Bag-1 and GRP78/BiP show a perinuclear colocalization. Confocal microscopic analyses were carried out in 22Rv.1 cells that have been paraformaldehyde-fixed and stained with a Bag-1 antibody to detect Bag-1 (green channel) and a GRP78/BiP specific antibody to detect GRP78/BiP (red channel). The orange staining in the merge of the two channels indicates the degree of co-localization of the two proteins. All images (40X) were acquired with a Leica TCS SPE confocal microscope (Leica Microsystems; Scale bars indicate 25 µm). D. Diagrammatic representation of the domains of GRP78. E. Bag-1 binds to multiple sites on GRP78. GST-pull down assay performed incubating 500 µg lysate of HEK-293 cells transfected with an HA-tagged Bag-1 and 10 µg GST-fused GRP78 full length and its ATPase and substrate binding domain (SBD). Western blot analysis was carried out using an HA antibody to detect the Bag-1-tagged protein.
Figure 5 An N-terminal unfolded fragment of the Bag-1 peptide is sufficient to reduce tumor cell growth. A. Schematic diagram of the Bag-1 peptide and its deletion mutants. The ubiquitin-like domain is represented in blue and the BAG domain in red. The numbers refer to the amino acid positions of the different domains. The amino acid residues are numbered following the numbering for Bag-1L. B. Prediction of the secondary structure of the Bag-1 peptide, showing an N-terminal β-hairpin from the ubiquitin-like domain (blue) and a C-terminal α-helix from the BAG domain (red). C. Normalized circular dichroism spectra of the Bag-1 peptides. 30 µM of the Bag-1 peptide were measured in 20 mM KHPO4 buffer, pH 6.8 (black line). […] 12 µM of the N-term peptide (green line) and 11 µM of C-term (blue line) were measured under the same conditions. […] Cells transfected with the indicated constructs were selected in medium containing neomycin and the colonies formed were quantified. […] Tumor size was measured once per week using a caliper and expressed as tumor volume in mm^3. […]
In general terms: A western blot detects proteins with antibodies after separation by electrophoresis.

The subject of series [2] is GRP78/BiP. The series can be described thus: In vitro ATPase activity assay of GRP78. In kind it is biochemical. Particulars: GRP78 0.5 µg, GST purified Bag-1 or Bag-1 peptide up to 1.5 µg, 1 h, 37°C. On the procedure: In vitro ATPase activity assay of GRP78. A. ATPase activity was measured with the ATPase assay kit from Innova Bioscience (Cambridge, UK). The reaction mixture contained GRP78 (0.5 µg) increasing amounts of GST purified Bag-1 (continuous line) or Bag-1 peptide (dashed line) up to 1.5 µg. The reaction was carried out for 1 h at 37°C with purified ATP according to the manufacturer’s instructions. Each point represents the mean value of three independent experiments ± SEM. B. The purity of protein preparation used for the assay. Shown are 5 µg of purified GRP78 (StressMarq Biosciences, Victoria, Canada), GST Bag-1 peptide, and GST-Bag-1 used in the assay following SDS PAGE and Coomassie blue staining. (TIF) Click here for additional data file.

For “C-terminal peptide: 28 C-terminal fragment of the Bag-1 peptide (Bag-1L 241–269) (EKIADQLEELNKELTGIQQGFLPKDLQAE; not fully specified)”, in the series on GRP78/BiP [1], the “interaction with GRP78/BiP” value is recorded as “not the C-terminal peptide bound to GRP78/BiP”.

For “N-terminal peptide: N-terminal 40 residues of the Bag-1 peptide (Bag-1L 202–241) (TPLSALGIQDGCRVMLIGKKNSPQEEVELKKLKHLEKSVE; not fully specified)”, in the series on GRP78/BiP [1], the “interaction with GRP78/BiP” value was “bound to GRP78/BiP”.

As to “ΔUbi peptide: Bag-1 peptide lacking the ubiquitin-like domain portion (Bag-1L 220–269) (KKNSPQEEVELKKLKHLEKSVEKIADQLEELNKELTGIQQGFLPKDLQAE; not fully specified)”, in the series on GRP78/BiP [1], the “interaction with GRP78/BiP” value is “abrogated the binding to GRP78”.

B1: Bag-1: cochaperone Bag-1, HA-tagged (pcDNA3.1-HA-Bag-1), or endogenous (protein)
chain: TPLSALGIQDGCRVMLIGKKNSPQEEVELKKLKHLEKSVEKIADQLEELNKELTGIQQGFLPKDLQAE
modifications: left off: HA, end not stated, kept
notes: cochaperone Bag-1, HA-tagged (pcDNA3.1-HA-Bag-1), or endogenous
Turning to B1, in the series with GRP78/BiP [2], the “ATPase activity of GRP78/BiP” value is listed as “increased this enzymatic activity”. Further, the “interaction with full length GRP78/BiP” value with GRP78/BiP [1] (10 µg GST-fused GRP78 full length, lysate of HEK-293 cells expressing HA-tagged Bag-1) is given as “interacted not only with the full length GRP78/BiP”.

B2: Bag-1 peptide: internal sequence of 68 amino acids of Bag-1 (Bag1-L 202–269), HA-tagged, expressed from pcDNA3 (peptide)
chain: TPLSALGIQDGCRVMLIGKKNSPQEEVELKKLKHLEKSVEKIADQLEELNKELTGIQQGFLPKDLQAE
modifications: also: HA tag, end not given here
Turning to B2, the “ATPase activity of GRP78/BiP” value in the series with GRP78/BiP [2] is “did not have any effect on the ATPase activity of GRP78/BiP”.
